The values below come from ChEMBL document CHEMBL1131706, “S1319: a novel beta2-andrenoceptor agonist from a marine sponge Dysidea sp” (Bioorg Med Chem Lett, 1999).

One assay is filed under the species Cavia porcellus. The assay is described as follows: Compound was tested for the ability to relax histamine induced contraction of isolated trachea. Format: functional.
Assay [1] deals with Beta-1 adrenergic receptor (Homo sapiens, UniProt P08588).
Description: Compound was tested for its binding affinity to human Beta-1 adrenergic receptor by using the radioligand [3H]CGP-12177
The target of assay [2] is Beta-2 adrenergic receptor (Homo sapiens, UniProt P07550).
Sequence of Beta-2 adrenergic receptor (P07550 whole entry): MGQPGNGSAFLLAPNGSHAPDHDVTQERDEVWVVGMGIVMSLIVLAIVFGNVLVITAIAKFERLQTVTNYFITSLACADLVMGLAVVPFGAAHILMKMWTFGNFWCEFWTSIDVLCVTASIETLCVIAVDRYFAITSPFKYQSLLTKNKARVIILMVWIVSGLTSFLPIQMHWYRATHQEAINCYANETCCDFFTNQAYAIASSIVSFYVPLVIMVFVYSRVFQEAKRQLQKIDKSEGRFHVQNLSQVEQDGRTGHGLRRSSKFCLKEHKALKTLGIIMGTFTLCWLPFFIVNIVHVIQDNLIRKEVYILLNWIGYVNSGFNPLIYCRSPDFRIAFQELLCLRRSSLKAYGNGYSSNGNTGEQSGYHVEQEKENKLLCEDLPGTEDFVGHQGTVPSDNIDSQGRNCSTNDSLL
Description: Compound was tested for its binding affinity to human Beta-2 adrenergic receptor by using the radioligand [3H]CGP-12177

Sequence of Beta-1 adrenergic receptor (P08588 whole entry): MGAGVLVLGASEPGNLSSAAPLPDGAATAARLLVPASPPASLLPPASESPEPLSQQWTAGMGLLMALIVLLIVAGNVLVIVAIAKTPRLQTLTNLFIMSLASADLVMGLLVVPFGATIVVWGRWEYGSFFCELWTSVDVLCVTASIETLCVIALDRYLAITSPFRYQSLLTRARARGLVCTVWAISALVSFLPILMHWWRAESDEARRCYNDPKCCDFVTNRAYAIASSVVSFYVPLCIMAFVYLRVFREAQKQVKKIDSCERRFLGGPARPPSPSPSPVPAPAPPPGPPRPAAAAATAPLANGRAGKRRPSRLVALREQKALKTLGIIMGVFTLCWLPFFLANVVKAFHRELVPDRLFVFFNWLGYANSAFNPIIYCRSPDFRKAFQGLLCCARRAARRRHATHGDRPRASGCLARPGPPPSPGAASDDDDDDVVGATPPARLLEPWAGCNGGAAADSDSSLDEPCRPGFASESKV

As usually defined, the Kd is the concentration at which binding is half-saturated. Low readings indicate a tighter complex, high ones a looser complex. Take `CNCC(O)c1ccc(O)c2nc(O)sc12` (centres undefined): in the assay listed under Cavia porcellus, the pD2 is given as 10.6. For the same molecule, the Kd in assay [1] came out at 120 nM; in assay [2], 51 nM.

As to `CNCC(O)c1ccc(OC)c2c1sc(=O)n2C` (centres undefined), the pD2 in the assay filed under Cavia porcellus is on record as 7.08.
